{
  "source": "patent US4421767A",
  "about": "“Compounds and methods for treating depression” (priority 1982, dated 1983)",
  "key": {"[1]": {"test_system": "MAO", "conditions": "literature; cited from earlier work"}, "[2]": {"test_system": "MAO", "experiment": "In vitro MAO inhibition", "type": "biochemical"}, "[3]": {"test_system": "non-neuronal MAO", "experiment": "Ex vivo MAO activity after i.p. injection in rats, non-neuronal MAO", "set-up": "species or system rat", "conditions": "AFMBA 100 mg/kg i.p., 18 hours", "method": "(§1) Rats were injected with AFHBA (0.5 mg/kg, i.p.) alone or with AFHBA (0.5 mg/kg, i.p.) in combination with MFMD (2.0 mg/kg, i.p.) administered 30 minutes before AFHBA. Animals were killed 18 hours later and MAO activity (5-HT and phenethylamine as substrates) was determined in brain, heart, and liver. In the brain, AFHBA administered alone inhibited neuronal MAO by 72% and non-neuronal MAO by 37%.\n(§2) III. Rats were injected with AFMBA (100 mg/kg, i.p.) and were killed 18 hours later. MAO activity was determined in the brain, heart, and liver using 5-HT and PEA."}, "[4]": {"test_system": "neuronal MAO", "experiment": "Ex vivo MAO activity after i.p. injection in rats, neuronal MAO", "set-up": "species or system rat", "conditions": "AFMBA 100 mg/kg i.p., 18 hours", "method": "as §1, §2"}, "[5]": {"test_system": "brain noradrenaline and 5-HT concentrations", "experiment": "Brain amine concentration, AFHBA with or without carbidopa pretreatment in rats (Table II)", "type": "in vivo, rat", "conditions": "for Brain Amine Concentration, 5-HT / Brain Amine Concentration, Noradrenaline: 5 days", "method": "(§3) (B) Rats were gavaged with saline or carbidopa given at dosage of 10 or 100 mg/kg. Thirty minutes later, the rats were gavaged with saline or AFHBA given at a dosage of 62.5 μg/kg. This treatment was repeated daily for 5 days. On the 6th day, the rats were anaesthetized and heart rate and blood pressure responses to tyramine (0.3-50 mg/kg, i.d.) were determined. Additionally, monoamines and MAO activity were determined in various tissues, including brain."}, "[6]": {"test_system": "heart rate and blood pressure responses to tyramine", "type": "in vivo, rat", "conditions": "for Tyramine Potentiation: 5 days, tyramine i.d.", "method": "as §3"}, "[7]": {"test_system": "MAO", "experiment": "Ex vivo MAO activity in rats, protection by extracerebral AADC inhibitor", "set-up": "species or system rat", "conditions": "carbidopa 50 mg/kg i.p. with AFHBA, compared with MFMD 2.0 mg/kg i.p., heart", "method": "as §1\nMAO activity was determined in the brain using 5-HT and phenethylamine (PEA) as substrates."}, "[8]": {"test_system": "brain noradrenaline and 5-HT concentrations", "experiment": "Brain amine concentration after 5 days oral MAO inhibitor in rats (Table I)", "type": "in vivo, rat", "conditions": "for Brain Amine Concentration, 5-HT / Brain Amine Concentration, Noradrenaline: 5 days", "method": "On the 6th day, rats were anaesthetized and heart rate and blood pressure responses to tyramine (0.3-50 mg/kg) administered intraduodenally (i.d.) were determined. Additionally, monoamines and MAO activity were determined in various tissues including brain."}, "[9]": {"test_system": "heart rate and blood pressure responses to tyramine", "experiment": "Potentiation of tyramine response after 5 days oral MAO inhibitor in rats (Table I)", "type": "in vivo, rat", "conditions": "for Tyramine Potentiation: 5 days, tyramine i.d.", "method": "(A) Rats were gavaged daily for 5 days with saline or 2-amino-4-fluoro-3-(3'-hydroxyphenyl)-3-butenoic acid (AFHBA) at dosages of 15.6, 62.5, 250, or 1000 μg/kg or with clorgyline at dosages of 1250 or 5000 μg/kg. On the 6th day, rats were anaesthetized and heart rate and blood pressure responses to tyramine (0.3-50 mg/kg) administered intraduodenally (i.d.) were determined. Additionally, monoamines and MAO activity were determined in various tissues including brain."}, "[10]": {"test_system": "MAO-A", "conditions": "literature; cited from earlier work"}, "[11]": {"test_system": "depression", "conditions": "literature; cited from earlier work"}, "[12]": {"test_system": "cheese effect", "conditions": "low dosages where preferential inhibition of MAO-B occurs; cited from earlier work"}, "[13]": {"test_system": "MAO-B", "conditions": "literature; cited from earlier work"}, "[14]": {"conditions": "carbidopa alone 10000 μg/kg daily p.o."}, "[15]": {"conditions": "carbidopa alone 100000 μg/kg daily p.o."}, "[16]": {"conditions": "Clorgyline 1250 μg/kg daily p.o."}, "[17]": {"conditions": "Clorgyline 5000 μg/kg daily p.o."}},
  "note": "pIC50: −log10 of the molar value. Read-outs that look alike come from different tables or passages of the source.",
  "data": [
    {"smiles": "N[C@@H]1C[C@H]1c1ccccc1", "note": "(relative stereo) [tranylcypromine]", "values": [
      {"measurement": "preference of action upon MAO", "setting": "[1]", "result": "not preferential in their action upon MAO"}
    ]},
    {"smiles": "NCC(=CF)c1cccc(O)c1", "note": "[2-(3'-hydroxy)phenyl-3-fluoroallylamine]", "values": [
      {"measurement": "MAO inhibition type", "setting": "[2]", "result": "time-dependent irreversible inhibitor"},
      {"measurement": "pIC50", "setting": "[2]; unit inferred", "result": "~9.00"}
    ]},
    {"smiles": "COc1ccc(C(=CF)C(N)C(=O)O)cc1O", "note": "(centres unmarked) [AFMBA, 2-amino-4-fluoro-3-(3'-hydroxy-4-methoxyphenyl)-3-butenoic acid]", "values": [
      {"measurement": "% Inhibition of MAO, Non-neuronal", "setting": "[3]; brain", "result": 40, "unit": "%"},
      {"measurement": "% Inhibition of MAO, Non-neuronal", "setting": "[3]; heart", "result": 46, "unit": "%"},
      {"measurement": "% Inhibition of MAO, Non-neuronal", "setting": "[3]; liver", "result": 11, "unit": "%"},
      {"measurement": "% Inhibition of MAO, Neuronal", "setting": "[4]; brain", "result": 16, "unit": "%"},
      {"measurement": "% Inhibition of MAO, Neuronal", "setting": "[4]; heart", "result": 18, "unit": "%"},
      {"measurement": "% Inhibition of MAO, Neuronal", "setting": "[4]; liver", "result": 2, "unit": "%"}
    ]},
    {"smiles": "C[C@@](Cc1ccc(O)c(O)c1)(NN)C(=O)O", "note": "[Carbidopa, reference compound]", "values": [
      {"measurement": "elevation of brain monoamines on coadministration with AFHBA", "setting": "[5]; carbidopa 10 mg/kg + AFHBA 62.5 μg/kg", "result": "significantly enhanced the elevation of brain monoamines"},
      {"measurement": "effectiveness of AFHBA to raise brain monoamines on coadministration", "setting": "[5]; carbidopa 100 mg/kg + AFHBA", "result": "reduced the effectiveness of AFHBA to raise brain monoamines"},
      {"measurement": "Brain Amine Concentration, 5-HT", "setting": "[5]; [14]", "result": "599 ± 31", "unit": "ng/g"},
      {"measurement": "Brain Amine Concentration, Noradrenaline", "setting": "[5]; [14]", "result": "366 ± 3", "unit": "ng/g"},
      {"measurement": "Brain Amine Concentration, 5-HT", "setting": "[5]; [15]", "result": "443 ± 19", "unit": "ng/g"},
      {"measurement": "Brain Amine Concentration, Noradrenaline", "setting": "[5]; [15]", "result": "271 ± 19", "unit": "ng/g"},
      {"measurement": "effect on tyramine response", "setting": "[6]; carbidopa alone 10 mg/kg", "result": "no effect on tyramine response"},
      {"measurement": "Tyramine Potentiation", "setting": "[6]; [14]", "result": 1.1},
      {"measurement": "Tyramine Potentiation", "setting": "[6]; [15]", "result": 2.3},
      {"measurement": "effect on tyramine response", "setting": "[6]; carbidopa alone 100 mg/kg", "result": "potentiated the tyramine response"},
      {"measurement": "protective effect against inhibition of MAO in the heart", "setting": "[7]", "result": "same protective effect against inhibition of MAO in the heart as MFMD"}
    ]},
    {"smiles": "C#CCN(C)CCCOc1ccc(Cl)cc1Cl", "note": "[Clorgyline, reference compound]", "values": [
      {"measurement": "Brain Amine Concentration, 5-HT", "setting": "[8]; [16]", "result": "620 ± 34", "unit": "ng/g"},
      {"measurement": "Brain Amine Concentration, Noradrenaline", "setting": "[8]; [16]", "result": "351 ± 11", "unit": "ng/g"},
      {"measurement": "Brain Amine Concentration, 5-HT", "setting": "[8]; [17]", "result": "1027 ± 82", "unit": "ng/g"},
      {"measurement": "Brain Amine Concentration, Noradrenaline", "setting": "[8]; [17]", "result": "329 ± 19", "unit": "ng/g"},
      {"measurement": "brain noradrenaline and 5-HT concentrations (dose relation)", "setting": "[8]; subacute treatment", "result": "dose-related increases in brain noradrenaline and 5-HT concentrations"},
      {"measurement": "Tyramine Potentiation", "setting": "[9]; Clorgyline 1250 μg/kg daily p.o., some potentiation at lowest doses of tyramine (footnote c)", "result": 1.0},
      {"measurement": "Tyramine Potentiation", "setting": "[9]; [17]", "result": 5.0},
      {"measurement": "potentiation of the tyramine response (dose relation)", "setting": "[9]; subacute treatment", "result": "potentiation of the tyramine response"},
      {"measurement": "preferential inhibition of MAO-A", "setting": "[10]", "result": "preferentially inhibited"},
      {"measurement": "selectivity at lower versus higher dosages", "setting": "[1]", "result": "selective inhibitors at lower dosages, but are not selective inhibitors at higher dosages"},
      {"measurement": "clinical antidepressant effect", "setting": "[11]", "result": "clinically effective antidepressant agents"}
    ]},
    {"smiles": "C#CCN(C)[C@H](C)Cc1ccccc1", "note": "[L-deprenyl]", "values": [
      {"measurement": "cheese effect", "setting": "[12]", "result": "not observed"},
      {"measurement": "clinical antidepressant effect", "setting": "[11]", "result": "clinically effective antidepressant agents"}
    ]},
    {"smiles": "Cc1cc(C(=O)NNCc2ccccc2)no1", "note": "[isocarboxazid]", "values": [
      {"measurement": "preference of action upon MAO", "setting": "[1]", "result": "not preferential in their action upon MAO"}
    ]},
    {"smiles": "C#CCN(C)Cc1ccccc1", "note": "[pargyline]", "values": [
      {"measurement": "preferential inhibition of MAO-B", "setting": "[13]", "result": "preferentially inhibited"},
      {"measurement": "selectivity at lower versus higher dosages", "setting": "[1]", "result": "selective inhibitors at lower dosages, but are not selective inhibitors at higher dosages"},
      {"measurement": "clinical antidepressant effect", "setting": "[11]", "result": "clinically effective antidepressant agents"}
    ]},
    {"smiles": "NNCCc1ccccc1", "note": "[phenelzine]", "values": [
      {"measurement": "preference of action upon MAO", "setting": "[1]", "result": "not preferential in their action upon MAO"}
    ]}
  ]
}
